Read-outs that look alike come from different tables or passages of the source.
Key:
[1] = tested on: Saos-2 tumour cell-induced platelet aggregation in heparinised human platelet-rich plasma; assay type: cell-based; conditions: for IC50: heparinised human PRP preincubated with peptide at 37C for 2 min, then Saos-2 cells, n = 6, read-out: IC50 for inhibition of Saos-2 TCIPA
Description: Brils JownW d Canmer (15) 71, 265-270 ? 1995 S9okon Press Al rghts reserved 0007-0920/95 $9.00 V The Arg-Gly-Asp-containing peptide, rhodostomin, inhibits in vitro cell adhesion to extracellular matrices and platelet aggregation caused by Saos-2 human osteosarcoma cells H-S Chiang', R-S Yang2 and T-F Huang' 'Pharmacological Institute and 'Department of Orthopaedics, College of Medicine, National Taiwan UniversitY, Taipei, Taiwan. Sumary Saos-2 cells, derived from a primary human osteosarcoma, caused dose-dependent platelet aggrega- tion in heparinised human platelet-rich plasma. […] The cell suspension shortened the plasma recalcification times of normal, factor VIII-deficient and factor IX-deficient human plasmas in a dose- dependent manner. […] Moreover, a monoclonal antibody (MAb) against human tissue factor completely abolished TCIPA. […] Keywords: osteosarcoma; platelet aggregation; tissue factor: integrin; extracellular matrix: Arg-Gly-Asp- containing peptide The formation of a metastatic lesion is the result of a com- plex series of events called the 'metastatic cascade'. Following intravasation, circulating tumour cells interact with a variety of host cells such as effectors of the cellular immune res- ponses, endothelial cells and platelets. The interaction of tumour cells and host platelets may promote the metastatic process (Honn et al., 1992). Indeed, there is evidence that the incidence of lymph node metastasis caused by ten cell lines, from rat renal carcinoma, in vivo correlates well with their ability to induce platelet aggregation in vitro (Pearlstein et al., 1980). Platelets may enhance tumour cell adhesion to endothelial cells and subendothelial surfaces during the haematogenous metastasis process. The cell-cell or cell-extracellular matrix (ECM) interactions of both normal and tumour cells have been proven to be mediated by a variety of plasma memb- rane receptors including the integrin family (Hynes et al., 1987). Integrins are transmembrane proteins which link the ECM with the cell cytoskeleton. Such linkage enables cellular attachment to substrata and forms focal adhesion plaques in distinct plasma membrane regions which establish contact with the matrix (Grunicke, 1990). […] Purified components from snake venoms have been widely studied and found to affect platelet function, including trigramin-like anti-platelet peptides (Huang et al., 1987a, 1991a,b; Shebuski et al., 1989; Rucinski et al., 1990). Trigra- min, an RGD-containing peptide purified from venom of the Trimeresurus gramineus snake, is a specific antagonist of platelet membrane […] (Huang et al., 1987a, 1989). […] These peptides all contain the RGD sequence, are rich in cysteine and bind with high affinity to the surface of platelets. The in vitro metastatic characterisation of osteosarcoma is not yet well understood. In the present study, we examined in vitro the TCIPA caused by Saos-2 human osteosarcoma cells. We probed Saos-2 TCIPA with a variety of inhibitors and monoclonal antibodies in order to characterise fully the mechanism of this phenomenon. […] Materals and metbods Materials Saos-2 human osteosarcoma cells were obtained from ATCC (American Type Culture Collection) Laboratory. Crude venom of Agkistrodon rhodostoma (or Calloselasma rhodos- toma) was purchased from Latoxan (Rosans, France) and stored at -20?C. Rhodostomin was purified from venom of A. rhodostoma as previously described (Huang et al., 1989, 1990). GRGDS was purchased from Peninsula Laboratories, CA, USA. Gly-Arg-Gly-Glu-Ser (GRGES) was synthesised by the Biochemical Institute, College of Medicine, National Taiwan University. Apyrase (grade III), heparin, hirudin (grade IV from leeches), fibronectin (from bovine plasma), vitronectin (from human plasma), laminin (from basement membrane of mouse sarcoma), collagen type I (from calf skin) and type IV were obtained from Sigma (St Louis, MO, USA). Tissue thromboplastin reagent was Simplastin Excel standard (Organon Teknika, NC, USA). […]

[2] = tested on: Saos-2 cell adhesion to RGD-dependent ECM; assay: Saos-2 cell adhesion to RGD-dependent ECM (overall); assay type: cell-based, human; conditions: fibronectin, vitronectin, collagen type I
Description: Brils JownW d Canmer (15) 71, 265-270 ? 1995 S9okon Press Al rghts reserved 0007-0920/95 $9.00 V The Arg-Gly-Asp-containing peptide, rhodostomin, inhibits in vitro cell adhesion to extracellular matrices and platelet aggregation caused by Saos-2 human osteosarcoma cells H-S Chiang', R-S Yang2 and T-F Huang' 'Pharmacological Institute and 'Department of Orthopaedics, College of Medicine, National Taiwan UniversitY, Taipei, Taiwan. Sumary Saos-2 cells, derived from a primary human osteosarcoma, caused dose-dependent platelet aggrega- tion in heparinised human platelet-rich plasma. […] The cell suspension shortened the plasma recalcification times of normal, factor VIII-deficient and factor IX-deficient human plasmas in a dose- dependent manner. […] Moreover, a monoclonal antibody (MAb) against human tissue factor completely abolished TCIPA. […] Keywords: osteosarcoma; platelet aggregation; tissue factor: integrin; extracellular matrix: Arg-Gly-Asp- containing peptide The formation of a metastatic lesion is the result of a com- plex series of events called the 'metastatic cascade'. Following intravasation, circulating tumour cells interact with a variety of host cells such as effectors of the cellular immune res- ponses, endothelial cells and platelets. The interaction of tumour cells and host platelets may promote the metastatic process (Honn et al., 1992). […]

N=C(N)NCCC[C@H](NC(=O)CN)C(=O)NCC(=O)N[C@@H](CC(=O)O)C(=O)N[C@@H](CO)C(=O)O [GRGDS, Gly-Arg-Gly-Asp-Ser]
IC50 [1]: 560 µM

Gly-Arg-Gly-Glu-Ser [GRGES, peptide synthesised by the Biochemical Institute, National Taiwan University]
Inhibition of Saos-2 TCIPA ([1]; GRGES 1 mg ml-1, pretreatment of platelets): no significant effect

apyrase
Inhibition of Saos-2 TCIPA ([1]; apyrase 0.5 U ml-1 final concentration in PRP, preincubated at 37C for 2 min): did not inhibit
Lag phase preceding TCIPA ([1]; apyrase 0.5 U ml-1 in PRP): prolonged

heparin
Lag phase preceding platelet aggregation ([1]; heparin raised from 1 to 6 units ml-1 (data not shown)): markedly prolonged

hirudin
Inhibition of Saos-2 TCIPA ([1]; hirudin 5 U ml-1, PRP preincubated at 37C for 2 min): completely inhibited

rhodostomin
Potency relative to GRGDS in inhibiting Saos-2 cell adhesion to RGD-dependent ECM, on a molar basis [2]: ~1000 fold
IC50 [1]: 0.03 µM
Potency relative to GRGDS in inhibiting TCIPA, on a molar basis ([1]; ratio of IC50 values): about 18 000 fold
Inhibition of Saos-2 TCIPA ([1]; rhodostomin, pretreatment of platelets): complely inhibited

Source: paper PMC2033597, “The Arg-Gly-Asp-containing peptide, rhodostomin, inhibits in vitro cell adhesion to extracellular matrices and platelet aggregation caused by saos-2 human osteosarcoma cells” (British Journal of Cancer, 1995)
